According to patent US6841519B1, “Isoxazoline derivatives and herbicides containing the same as the active ingredient” (Kumiai Chemical Industry Co., Ltd., priority 1999, dated 2005):

Legend:
Format in all cases: in vivo
[1] = tested on: Setaria viridis (L.) Beauv. (Se); experiment: Test for herbicidal effect by upland field soil treatment (Test Example 2), Se
In short: (§1)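 Pre-emergence soil treatment: wettable powder diluted in water and sprayed on soil just sown with Ec and Se seeds, delivering 100 g active ingredient per 10 ares in 100 liters per 10 ares. Herbicidal effect was rated against a fixed scale 21 days later, after greenhouse growth.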

[2] = tested on: Echinochloa crus-galli (L.) Beauv. var. crusgall (Ec); experiment: Test for herbicidal effect by upland field soil treatment (Test Example 2), Ec
In short: as §1

[3] = tested on: Echinochloa crus-galli (L.) Beauv. var. crusgalli (Ec); experiment: Test for herbicidal effect by upland foliage treatment (Test Example 3); conditions: 100 g/10 a active ingredient, examined at 14th day
In short: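 Scored 14 days post-spray against a graded standard: greenhouse-grown Ec, 2 weeks old in upland soil, received whole-foliage application of diluted wettable powder (100 g active ingredient per 10 ares, spray volume 100 L per 10 ares).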

[4] = tested on: Echinochloa oryzicola Vasing. (Eo); experiment: Test for herbicidal effect by paddy field soil treatment (Test Example 1); conditions: application amount (active ingredient) 100 g/10 a, examined at the 21st day from the treatment, index per Table 40
In short: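 Scored on a standard scale at day 21 in the greenhouse: herbicidal effect of wettable powder applied to flooded water (3 cm depth) at 100 g a.i./10 ares, one day after sowing Eo into puddled paddy soil.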

[5] = application amount (active ingredient) 100 g/10 a, examined at the 21st day from the treatment, index per Table 40
[6] = 100 g/10 a active ingredient, examined at 21st day

Row | SMILES | Herbicidal effect to Se [1, 5] | Herbicidal effect to Ec [2, 5] | Herbicidal effect to Ec [3] | Herbicidal effect to Eo [4] | Herbicidal effect to Se [1, 6] | Herbicidal effect to Ec [2, 6]
1 | Cc1cccc(C)c1CS(=O)(=O)C1=NOC(C)(C)C1 [Compound 1-185] | 5 (A herbicidal effect or phytotoxicity of 90% or more) | 5 (A herbicidal effect or phytotoxicity of 90% or more) | 5 (A herbicidal effect or phytotoxicity of 90% or more) | 5 (A herbicidal effect or phytotoxicity of 90% or more) | – | –
2 | CC1(C)CC(S(=O)(=O)Cc2cccc(Cl)c2F)=NO1 [Compound 1-184] | 4 (A herbicidal effect or phytotoxicity of 70% to less than 90%) | 5 (A herbicidal effect or phytotoxicity of 90% or more) | 4 (A herbicidal effect or phytotoxicity of 70% to less than 90%) | 5 (A herbicidal effect or phytotoxicity of 90% or more) | – | –
3 | CCC1(C)CC(S(=O)(=O)Cc2ccccc2)=NO1 (centres unmarked) [Compound 1-188] | 5 (A herbicidal effect or phytotoxicity of 90% or more) | 5 (A herbicidal effect or phytotoxicity of 90% or more) | 4 (A herbicidal effect or phytotoxicity of 70% to less than 90%) | 5 (A herbicidal effect or phytotoxicity of 90% or more) | – | –
4 | CC1(C)CC(S(=O)(=O)Cc2ccccc2Br)=NO1 [Compound 1-35] | 5 (A herbicidal effect or phytotoxicity of 90% or more) | 5 (A herbicidal effect or phytotoxicity of 90% or more) | 4 (A herbicidal effect or phytotoxicity of 70% to less than 90%) | 5 (A herbicidal effect or phytotoxicity of 90% or more) | – | –
5 | CCC1(CC)CC(S(=O)(=O)Cc2c(F)cccc2F)=NO1 [Compound 1-364] | 5 (A herbicidal effect or phytotoxicity of 90% or more) | 5 (A herbicidal effect or phytotoxicity of 90% or more) | 4 (A herbicidal effect or phytotoxicity of 70% to less than 90%) | 5 (A herbicidal effect or phytotoxicity of 90% or more) | – | –
6 | O=S(=O)(Cc1c(F)cccc1F)C1=NOC2(CC2)C1 [Compound 1-380] | 4 (A herbicidal effect or phytotoxicity of 70% to less than 90%) | 5 (A herbicidal effect or phytotoxicity of 90% or more) | 4 (A herbicidal effect or phytotoxicity of 70% to less than 90%) | 5 (A herbicidal effect or phytotoxicity of 90% or more) | – | –
7 | CC1(C2CC2)CC(S(=O)(=O)Cc2ccccc2OC(F)F)=NO1 (centres unmarked) [Compound 1-562] | – | – | 4 (A herbicidal effect or phytotoxicity of 70% to less than 90%) | 5 (A herbicidal effect or phytotoxicity of 90% or more) | 5 (A herbicidal effect or phytotoxicity of 90% or more) | 5 (A herbicidal effect or phytotoxicity of 90% or more)
8 | Cc1ccc([N+](=O)[O-])c(CS(=O)(=O)C2=NOC(C)(C)C2)c1 [Compound 1-540] | – | – | 5 (A herbicidal effect or phytotoxicity of 90% or more) | 5 (A herbicidal effect or phytotoxicity of 90% or more) | 5 (A herbicidal effect or phytotoxicity of 90% or more) | 5 (A herbicidal effect or phytotoxicity of 90% or more)
9 | CCCOc1cccc(Cl)c1CS(=O)(=O)C1=NOC(C)(C)C1 [Compound 1-565] | – | – | 4 (A herbicidal effect or phytotoxicity of 70% to less than 90%) | 5 (A herbicidal effect or phytotoxicity of 90% or more) | 5 (A herbicidal effect or phytotoxicity of 90% or more) | 5 (A herbicidal effect or phytotoxicity of 90% or more)
10 | CC1(C)CC(S(=O)(=O)Cc2ccc(Cl)c(Cl)c2)=NO1 [Compound 1-491] | 5 (A herbicidal effect or phytotoxicity of 90% or more) | 5 (A herbicidal effect or phytotoxicity of 90% or more) | 4 (A herbicidal effect or phytotoxicity of 70% to less than 90%) | 5 (A herbicidal effect or phytotoxicity of 90% or more) | – | –
11 | CC1(C)CC(S(=O)(=O)Cc2ccc(Cl)cc2[N+](=O)[O-])=NO1 [Compound 1-539] | – | – | 5 (A herbicidal effect or phytotoxicity of 90% or more) | 5 (A herbicidal effect or phytotoxicity of 90% or more) | 5 (A herbicidal effect or phytotoxicity of 90% or more) | 5 (A herbicidal effect or phytotoxicity of 90% or more)
12 | CC1(C)CC(S(=O)(=O)Cc2cc(Br)cc(Br)c2)=NO1 [Compound 1-545] | – | – | 5 (A herbicidal effect or phytotoxicity of 90% or more) | 5 (A herbicidal effect or phytotoxicity of 90% or more) | 5 (A herbicidal effect or phytotoxicity of 90% or more) | 5 (A herbicidal effect or phytotoxicity of 90% or more)
13 | Cc1ccc(CS(=O)(=O)C2=NOC(C)(C)C2)cc1 [Compound 1-7] | 5 (A herbicidal effect or phytotoxicity of 90% or more) | 5 (A herbicidal effect or phytotoxicity of 90% or more) | 4 (A herbicidal effect or phytotoxicity of 70% to less than 90%) | 5 (A herbicidal effect or phytotoxicity of 90% or more) | – | –
14 | CC1(C)CC(S(=O)(=O)Cc2ccc(Cl)cc2Cl)=NO1 [Compound 1-488] | 4 (A herbicidal effect or phytotoxicity of 70% to less than 90%) | 5 (A herbicidal effect or phytotoxicity of 90% or more) | 4 (A herbicidal effect or phytotoxicity of 70% to less than 90%) | 5 (A herbicidal effect or phytotoxicity of 90% or more) | – | –
15 | CC1(C)CC(S(=O)(=O)Cc2c(F)cccc2C(F)(F)F)=NO1 [Compound 1-527] | – | – | 5 (A herbicidal effect or phytotoxicity of 90% or more) | 5 (A herbicidal effect or phytotoxicity of 90% or more) | 5 (A herbicidal effect or phytotoxicity of 90% or more) | 5 (A herbicidal effect or phytotoxicity of 90% or more)
16 | CC1(C)CC(S(=O)(=O)Cc2ccc(C(F)(F)F)cc2F)=NO1 [Compound 1-528] | – | – | 5 (A herbicidal effect or phytotoxicity of 90% or more) | 5 (A herbicidal effect or phytotoxicity of 90% or more) | 5 (A herbicidal effect or phytotoxicity of 90% or more) | 5 (A herbicidal effect or phytotoxicity of 90% or more)
17 | CC1(C)CC(S(=O)(=O)Cc2cc(F)cc(F)c2)=NO1 [Compound 1-506] | – | – | 4 (A herbicidal effect or phytotoxicity of 70% to less than 90%) | 5 (A herbicidal effect or phytotoxicity of 90% or more) | 5 (A herbicidal effect or phytotoxicity of 90% or more) | 5 (A herbicidal effect or phytotoxicity of 90% or more)
18 | CC1(C)CC(S(=O)(=O)Cc2ccc(F)cc2Cl)=NO1 [Compound 1-538] | – | – | 5 (A herbicidal effect or phytotoxicity of 90% or more) | 5 (A herbicidal effect or phytotoxicity of 90% or more) | 5 (A herbicidal effect or phytotoxicity of 90% or more) | 5 (A herbicidal effect or phytotoxicity of 90% or more)
19 | CCC1(CC)CC([S+]([O-])Cc2c(F)cccc2F)=NO1 (centres unmarked) [Compound 1-363] | 4 (A herbicidal effect or phytotoxicity of 70% to less than 90%) | 5 (A herbicidal effect or phytotoxicity of 90% or more) | 4 (A herbicidal effect or phytotoxicity of 70% to less than 90%) | 5 (A herbicidal effect or phytotoxicity of 90% or more) | – | –
20 | CCCOc1cccc(F)c1CS(=O)(=O)C1=NOC(C)(C)C1 [Compound 1-569] | – | – | 5 (A herbicidal effect or phytotoxicity of 90% or more) | 5 (A herbicidal effect or phytotoxicity of 90% or more) | 5 (A herbicidal effect or phytotoxicity of 90% or more) | 5 (A herbicidal effect or phytotoxicity of 90% or more)
21 | Cc1ccccc1CS(=O)(=O)C1=NOC(C)(C)C1 [Compound 1-5] | 5 (A herbicidal effect or phytotoxicity of 90% or more) | 5 (A herbicidal effect or phytotoxicity of 90% or more) | 5 (A herbicidal effect or phytotoxicity of 90% or more) | 5 (A herbicidal effect or phytotoxicity of 90% or more) | – | –
22 | Cc1ccc(F)c(CS(=O)(=O)C2=NOC(C)(C)C2)c1F [Compound 1-550] | – | – | 5 (A herbicidal effect or phytotoxicity of 90% or more) | 5 (A herbicidal effect or phytotoxicity of 90% or more) | 5 (A herbicidal effect or phytotoxicity of 90% or more) | 5 (A herbicidal effect or phytotoxicity of 90% or more)
23 | CC1(C)CC(S(=O)(=O)Cc2cccc(Cl)c2)=NO1 [Compound 1-3] | 5 (A herbicidal effect or phytotoxicity of 90% or more) | 5 (A herbicidal effect or phytotoxicity of 90% or more) | 4 (A herbicidal effect or phytotoxicity of 70% to less than 90%) | 5 (A herbicidal effect or phytotoxicity of 90% or more) | – | –
